Assay results: publication PMC10148497, “Evaluation of Bacillus aryabhattai B8W22 peroxidase for phenol removal in waste water effluents” (BMC Microbiology, 2023)

System: T1, peroxidase from Bacillus aryabhattai B8W22
T1 construct: gene extracellular peroxidase; 66 kDa on SDS-PAGE
Assay: peroxidase activity assay, Lineweaver-Burk plot
Format: biochemical, Priestia aryabhattai
Conditions: co-substrate, pH and temperature of the kinetic assay not given

SMILES: COc1ccccc1O [guaiacol]
- Km: 6.942 mg/mL
